Assay results published in patent US20260243686A1, “REAL TIME DETECTION AND QU[…] PLANT INNATE IMMUNITY RESPONSE USING RAMAN SPECTROSCOPY” (TEMASEK LIFE SCIENCES […], priority 2021, published 2026).
Ends that are not written are not given here.

What was measured:
[1] = system: PTI response in Arabidopsis thaliana (Col-0) leaves; assay: Raman spectroscopy of elicitor-infiltrated leaves, Elicitor Response Factor (ERF); type: in vivo; settings: for ERF (Elicitor Response Factor) value: WT Col-0, 1 μM elicitor, proximal region, 10 hpi; for ERF value: proximal region (PR), 48 and 72 hpi
Method: Plant growth and elicitor/pathogen infiltration: Arabidopsis thaliana (Col-0) wild-type (WT) and mutants including fls2 (salk_062054), efr-2 (salk_068675), bak1 (salk_116202), bik1 (salk_005291), rbohd (salk_083046), pub12/13 (Zhou et al., 2018) and pub25/26 (Wang et al., 2018) were used. Ten-day old seedlings grown on soil were transferred to a growth room at 70% humidity and 21° C. with a 10-h-light/14-h-dark photoperiod (short-day condition). Light intensity was 100 μmol/m^2s^−1. Five to 6 week-old plants with about 17-18 leaves were used. Flg22 contains the 22-amino acid sequence […] (SEQ ID NO:1) corresponding to a conserved motif of the amino terminus of flagellin from Pseudomonas species. Elf18 contains the sequence Ac[…] (SEQ ID NO:2) corresponding to the conserved N-terminal 18-amino acid peptide of the bacterial protein elongation factor Tu (EF-Tu). These peptides (Axil Scientific Pte Ltd) were dissolved in sterile H2O to a concentration of 5 mM and aliquots of 100 μM stock solution were stored at −20° C. 3-hydroxydecanoic acid (Sigma, H3648) (Kutschera et al., 2019) was dissolved in ethanol to a concentration of 5 mM, and Chitin, GlcNacβ1-4[GlcNacβ1-4GlcNAc]5GlcNAc (ELICITYL, GLU437) was dissolved in water to a concentration of 5 mM. Aliquots of 100 μM stock solutions were stored at −20° C.
Custom-built Raman spectroscopy system and spectral data analysis: The Raman spectroscopy system with an 830 nm excitation wavelength was previously described (Huang et al., 2020). The Raman shift axis was calibrated using a polystyrene sample (Creely et al., 2005) and Raman spectra were recorded in the range of 400 cm^−1-1700 cm^−1. The 830 nm excitation wavelength has the advantage of deeper penetration depth and generating comparatively lower fluorescence background signal from the leaf tissue, resulting in spectra with a higher signal to noise ratio (SNR). The pre-processing of the Raman spectra consisted of cosmic ray removal and smoothing with the Savitzky-Golay filter function (MATLAB Inc., USA) with 5th order polynomial and frame length of 11. The Raman spectra presented here were obtained after removing any residual fluorescence background using a polynomial subtraction method with non-negative constraints (Lieber & Mahadevan-Jansen, 2003).
For Arabidopsis, two plants from each independent biological sample were investigated (Huang et al., 2020). The 7th or 8th leaf of 5-6 week-old plants were used for infiltrations (FIGS. 1A-1E) At the designated time after infiltrations, leaf discs (6 mm diameter) were excised with a puncher from regions proximal to the infiltrated sites (FIG. 2A). Two leaf discs were obtained from each elicitor-treated leaf, one from the left and the other from the right side of the central leaf vein. A total of 4 leaf discs were analyzed for each genotype per experiment. The leaf discs were placed with a drop of water between a fused silica slide of thickness 0.5 mm and a fused silica coverslip, which was 100 μm thick. Three locations were measured in each leaf disc, with 5 Raman spectra acquired per location and an exposure time of 10 s per spectrum. Thus, an average Raman spectrum of an independent biological sample was obtained from the mean of total 60 Raman spectra. The experiments were repeated with 3-4 independent biological samples.
A custom-built near infrared excitation Raman instrument (FIG. 1E) to measure Raman spectra from mock- or elicitor-infiltrated leaf samples (FIGS. 2B-2C). […]

[2] = system: PTI-specific marker genes in Arabidopsis leaves; assay: Gene expression analysis of PTI marker genes by qRT-PCR; type: in vivo, Arabidopsis thaliana; settings: infiltrated leaves, 1.0 μM elicitor
Method: RNA extraction and gene expression analysis by qRT-PCR: Total RNA was extracted from the entire infiltrated leaf using RNeasy plant mini kit (74104; Qiagen) with DNase I (79254; Qiagen) treatment. cDNA synthesis and RT-PCR were performed as described (Park et al., 2019). Expression of the Arabidopsis Act2 (At3g18780) was used as an internal control. Primer pairs for quantitative RT-PCR were designed using Primer-BLAST (https://www.ncbi.nlm.nih.gov/tools/primer-blast/index.cgi) or manually by eye.
flg22 and elf18 were used to induce plant innate immunity responses without related pathogenic symptoms (Bektas & Eulgem, 2015). To reduce variability between biological samples, Arabidopsis wild-type (Col-0) and mutant plants were grown under short-day conditions for about 5-6 weeks with about 17-18 leaves (Farmer et al., 2013; Kurenda et al., 2019) (FIG. 1A). The abaxial side of leaf 7th or 8th was infiltrated with a needleless syringe containing (50 μl) water, 1.0 μM flg22 or 1.0 μM elf18 (FIG. 1B). […] However, compared to mock infiltration, infiltration of either elicitor induced expression of PTI-specific marker genes of the PTI pathway but with different kinetics (FIGS. 3A-3C). […] Expression of most activated genes returned to basal levels by 24 hours (FIGS. 3A-3C) although several genes (PR1, WRYK29, and WRKY53) still maintained high expression levels at this time point.

[3] = system: PTI response in Arabidopsis thaliana (Col-0) leaves; assay: Raman spectroscopy of elicitor-infiltrated leaves, Elicitor Response Factor (ERF); type: in vivo; settings: WT, 1 μM elicitor, distal region (DR)
[4] = fls2 mutant, 24 hpi, 1 μM elicitor

| Substance | ERF (Elicitor Response Factor) value [1] | ERF value ([1]; WT, 1 μM elicitor) | Raman peak at 1065 cm^−1 ([1]; WT, 24 hpi) | Raman/ERF response [1, 4] | innate immunity response (gene expression and callose deposition data together) [2] | ERF value [3] | increase of ERF value from 10 hpi to 24 hpi ([1]; WT, 1 μM elicitor) | Raman peak intensity at 789.7 cm^−1 ([1]; WT, 24 hpi) | Raman/ERF response ([1]; efr-2 mutant, 24 hpi, 1 μM elicitor) |
| --- | --- | --- | --- | --- | --- | --- | --- | --- | --- |
| AcSKEKFERTKPHVNVGTIG (SEQ ID NO:2) (Ac-SKEKFERTKPHVNVGTIG; listed as Pseudomonas sp.) [elf18, conserved N-terminal 18-amino acid peptide of the bacterial protein elongation factor Tu (EF-Tu)] | 0.63×10^4 | decreased to almost zero | specifically resulted in changes | remained responsive | induced rapid and robust innate immunity response | Lower ERF value |  |  |  |
| QRLSTGSRINSAKDDAAGLQIA (SEQ ID NO:1) (listed as Pseudomonas sp.) [flg22] | 1.12×10^4 | decreased to almost zero |  | refractory | induced rapid and robust innate immunity response | Low ERF values | about 8 times | statistically significant change | responded |
